Reference: patent US20230085307A1, “PYRIDAZINONE COMPOUND AND HERBICIDE” (NISSAN CHEMICAL CORPORATION, priority 2019, published 2023)

Assays:
barnyard grass [1] = experiment: Test Example 4: herbicidal effect by soil treatment (Table 19, symbol H); format: in vivo, barnyard grass (Echinochloa crus-galli); conditions: amount of applied herbicide 320 g/ha
Outline: (§1)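 In this soil treatment, the formulated compound reached the seeds only through the soil: seeds were buried about 1.5 cm deep in sterilized diluvial soil, then the diluted emulsion was sprayed over the surface. After three weeks at 25° C. to 30° C. in a greenhouse, effects were graded on criteria from an earlier test.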

southern crabgrass = experiment: Test Example 5: herbicidal effect by foliage application, plastic box (Table 20, symbol F); format: in vivo, southern crabgrass (Digitaria ciliaris); conditions: foliage application, evaluated three weeks after application; for herbicidal effect on F: southern crabgrass (criteria 0-5): 320 g/ha
Outline: (§2)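 Plants were sown into sterilized diluvial soil under about 1.5 cm cover and kept in a greenhouse at 25° C. to 30° C. Fourteen days on, foliage received an even spray of the diluted emulsion. Herbicidal or crop effect was judged three weeks afterwards.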

green foxtail [2] = experiment: Test Example 4: herbicidal effect by soil treatment (Table 19, symbol G); format: in vivo, green foxtail (Setaria viridis); conditions: amount of applied herbicide 320 g/ha
Outline: as §1

Japanese bulrush [3] = experiment: Test Example 2: herbicidal activity, application during weed generation under submerged conditions (Table 17, symbol B); format: in vivo, Japanese bulrush (Schoenoplectus juncoides); conditions: AAH 320 g/ha; application during weed generation, submerged conditions
Outline: (§3)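 Mixed weed seedlings in alluvial soil under a 4 cm water layer, greenhouse-grown at 25–30° C. Compound given as a diluted emulsion into the floodwater at the 1–2 leaf stage; response graded after three weeks.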

wild oat [4] = experiment: Test Example 4: herbicidal effect by soil treatment (Table 19, symbol I); format: in vivo, wild oat (Avena fatua); conditions: amount of applied herbicide 320 g/ha
Outline: as §1

chickweed [5] = experiment: Test Example 4: herbicidal effect by soil treatment (Table 19, symbol P); format: in vivo, common chickweed (Stellaria media); conditions: amount of applied herbicide 320 g/ha
Outline: as §1

oval-leafed pondweed [6] = experiment: Test Example 2: herbicidal activity, application during weed generation under submerged conditions (Table 17, symbol C); format: in vivo, oval-leafed pondweed (Monochoria vaginalis); conditions: AAH 320 g/ha; application during weed generation, submerged conditions
Outline: as §3

Japanese bulrush [7] = experiment: Test Example 1: herbicidal activity, application before weed generation under submerged conditions (Table 16, symbol B); format: in vivo, Japanese bulrush (Schoenoplectus juncoides); conditions: 320 g/ha applied herbicide
Outline: (§4)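 Alluvial soil was flooded to 4 cm depth, weed seeds were sown mixed and 2.5-leaf rice seedlings were transplanted. On sowing day, the compound's emulsion, diluted in water to a set dose, was applied to the water surface. Plants grew at 25–30 °C and were scored 0–5 after three weeks.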

persian speedwell = experiment: Test Example 5: herbicidal effect by foliage application, plastic box (Table 20, symbol R); format: in vivo, Persian speedwell (Veronica persica); conditions: foliage application, evaluated three weeks after application; for herbicidal effect on R: persian speedwell (criteria 0-5): 320 g/ha
Outline: as §2

oval-leafed pondweed [8] = experiment: Test Example 1: herbicidal activity, application before weed generation under submerged conditions (Table 16, symbol C); format: in vivo, oval-leafed pondweed (Monochoria vaginalis); conditions: 320 g/ha applied herbicide
Outline: as §4

redroot pigweed = experiment: Test Example 4: herbicidal effect by soil treatment (Table 19, symbol N); format: in vivo, redroot pigweed (Amaranthus retroflexus); conditions: amount of applied herbicide 320 g/ha
Outline: as §1

chickweed [9] = experiment: Test Example 5: herbicidal effect by foliage application, plastic box (Table 20, symbol P); format: in vivo, common chickweed (Stellaria media); conditions: foliage application, evaluated three weeks after application; for herbicidal effect on P: chickweed (criteria 0-5): 320 g/ha
Outline: as §2

green foxtail [10] = experiment: Test Example 5: herbicidal effect by foliage application, plastic box (Table 20, symbol G); format: in vivo, green foxtail (Setaria viridis); conditions: foliage application, evaluated three weeks after application; for herbicidal effect on G: green foxtail (criteria 0-5): 320 g/ha
Outline: as §2

barnyard grass [11] = experiment: Test Example 5: herbicidal effect by foliage application, plastic box (Table 20, symbol H); format: in vivo, barnyard grass (Echinochloa crus-galli); conditions: foliage application, evaluated three weeks after application; for herbicidal effect on H: barnyard grass (criteria 0-5): 320 g/ha
Outline: as §2

wild oat [12] = experiment: Test Example 5: herbicidal effect by foliage application, plastic box (Table 20, symbol I); format: in vivo, wild oat (Avena fatua); conditions: foliage application, evaluated three weeks after application; for herbicidal effect on I: wild oat (criteria 0-5): 320 g/ha
Outline: as §2

windgrass = experiment: Test Example 5: herbicidal effect by foliage application, plastic box (Table 20, symbol L); format: in vivo, windgrass (Apera spica-venti); conditions: foliage application, evaluated three weeks after application; for herbicidal effect on L: windgrass (criteria 0-5): 320 g/ha
Outline: as §2

Structure (SMILES) | herbicidal effect on F: southern crabgrass (criteria 0-5) (southern crabgrass) | herbicidal effect rating, B: Japanese bulrush (Japanese bulrush [3]) | herbicidal effect rating, C: oval-leafed pondweed (oval-leafed pondweed [6]) | Herbicidal effect on B: Japanese bulrush (grade 0-5) (Japanese bulrush [7]) | herbicidal effect on R: persian speedwell (criteria 0-5) (persian speedwell) | Herbicidal effect on C: oval-leafed pondweed (grade 0-5) (oval-leafed pondweed [8]) | herbicidal effect on P: chickweed (criteria 0-5) (chickweed [9]) | herbicidal effect on G: green foxtail (criteria 0-5) (green foxtail [10]) | herbicidal effect on H: barnyard grass (criteria 0-5) (barnyard grass [11]) | herbicidal effect on I: wild oat (criteria 0-5) (wild oat [12]) | herbicidal effect on L: windgrass (criteria 0-5) (windgrass) | herbicidal effect on H: barnyard grass (barnyard grass [1]) | herbicidal effect on G: green foxtail (green foxtail [2]) | herbicidal effect on I: wild oat (wild oat [4]) | herbicidal effect on P: chickweed (chickweed [5]) | herbicidal effect on N: redroot pigweed (redroot pigweed) | also measured
Cc1nn(C)c(=O)c(-c2c(-c3cccc(OCC(C)C)c3)sc3ccc(F)cc23)c1O [2-221] | 5 (Herbicidal rate of 90% or more (almost completely withered)) | 3 (Herbicidal rate of 40% or more and less than 70%) | 3 (Herbicidal rate of 40% or more and less than 70%) | 5 (Herbicidal rate of 90% or more (almost completely withered)) | 5 (Herbicidal rate of 90% or more (almost completely withered)) | 5 (Herbicidal rate of 90% or more (almost completely withered)) | 5 (Herbicidal rate of 90% or more (almost completely withered)) | 5 (Herbicidal rate of 90% or more (almost completely withered)) | 5 (Herbicidal rate of 90% or more (almost completely withered)) | 5 (Herbicidal rate of 90% or more (almost completely withered)) | 5 (Herbicidal rate of 90% or more (almost completely withered)) | – | – | – | – | – | H: barnyard grass, herbicidal effect rating (barnyard grass [1]): 5 (Herbicidal rate of 90% or more (almost completely withered)); G: green foxtail, herbicidal effect rating (green foxtail [2]): 5 (Herbicidal rate of 90% or more (almost completely withered)); I: wild oat, herbicidal effect rating (wild oat [4]): 0 (Herbicidal rate of 5% or less (almost no effect)); P: chickweed, herbicidal effect rating (chickweed [5]): 3 (Herbicidal rate of 40% or more and less than 70%); N: redroot pigweed, herbicidal effect rating (redroot pigweed): 5 (Herbicidal rate of 90% or more (almost completely withered))
Cc1nn(C)c(=O)c(-c2c(-c3cccc(OC(C)(C)C)c3)sc3ccc(F)cc23)c1O [2-223] | 3 (Herbicidal rate of 40% or more and less than 70%) | 2 (Herbicidal rate of 20% or more and less than 40%) | 0 (Herbicidal rate of 5% or less (almost no effect)) | 4 (Herbicidal rate of 70% or more and less than 90%) | 5 (Herbicidal rate of 90% or more (almost completely withered)) | 2 (Herbicidal rate of 20% or more and less than 40%) | 5 (Herbicidal rate of 90% or more (almost completely withered)) | 1 (Herbicidal rate of 5% or more and less than 20%) | 4 (Herbicidal rate of 70% or more and less than 90%) | 1 (Herbicidal rate of 5% or more and less than 20%) | 5 (Herbicidal rate of 90% or more (almost completely withered)) | 3 (Herbicidal rate of 40% or more and less than 70%) | 3 (Herbicidal rate of 40% or more and less than 70%) | 0 (Herbicidal rate of 5% or less (almost no effect)) | 4 (Herbicidal rate of 70% or more and less than 90%) | 3 (Herbicidal rate of 40% or more and less than 70%) | –
CCCC(=O)Oc1c(C)nn(C)c(=O)c1-c1c(-c2ccc(C(F)F)cc2)sc2ccc(F)cc12 [2-228] | 4 (Herbicidal rate of 70% or more and less than 90%) | 3 (Herbicidal rate of 40% or more and less than 70%) | 3 (Herbicidal rate of 40% or more and less than 70%) | 4 (Herbicidal rate of 70% or more and less than 90%) | 5 (Herbicidal rate of 90% or more (almost completely withered)) | 4 (Herbicidal rate of 70% or more and less than 90%) | 5 (Herbicidal rate of 90% or more (almost completely withered)) | 5 (Herbicidal rate of 90% or more (almost completely withered)) | 5 (Herbicidal rate of 90% or more (almost completely withered)) | 0 (Herbicidal rate of 5% or less (almost no effect)) | 0 (Herbicidal rate of 5% or less (almost no effect)) | 5 (Herbicidal rate of 90% or more (almost completely withered)) | 4 (Herbicidal rate of 70% or more and less than 90%) | 0 (Herbicidal rate of 5% or less (almost no effect)) | 4 (Herbicidal rate of 70% or more and less than 90%) | 4 (Herbicidal rate of 70% or more and less than 90%) | –
CCSc1ccc(-c2sc3ccc(F)cc3c2-c2c(O)c(C)nn(C)c2=O)cc1 [2-244] | 5 (Herbicidal rate of 90% or more (almost completely withered)) | 3 (Herbicidal rate of 40% or more and less than 70%) | 4 (Herbicidal rate of 70% or more and less than 90%) | 0 (Herbicidal rate of 5% or less (almost no effect)) | 5 (Herbicidal rate of 90% or more (almost completely withered)) | 0 (Herbicidal rate of 5% or less (almost no effect)) | 5 (Herbicidal rate of 90% or more (almost completely withered)) | 5 (Herbicidal rate of 90% or more (almost completely withered)) | 5 (Herbicidal rate of 90% or more (almost completely withered)) | 5 (Herbicidal rate of 90% or more (almost completely withered)) | 5 (Herbicidal rate of 90% or more (almost completely withered)) | 4 (Herbicidal rate of 70% or more and less than 90%) | 5 (Herbicidal rate of 90% or more (almost completely withered)) | 0 (Herbicidal rate of 5% or less (almost no effect)) | 1 (Herbicidal rate of 5% or more and less than 20%) | 5 (Herbicidal rate of 90% or more (almost completely withered)) | –
Cc1nn(C)c(=O)c(-c2c(-c3ccc(SC4CC4)cc3)sc3ccc(F)cc23)c1O [2-254] | – | 0 (Herbicidal rate of 5% or less (almost no effect)) | 0 (Herbicidal rate of 5% or less (almost no effect)) | 3 (Herbicidal rate of 40% or more and less than 70%) | – | 1 (Herbicidal rate of 5% or more and less than 20%) | – | – | – | – | – | 5 (Herbicidal rate of 90% or more (almost completely withered)) | 5 (Herbicidal rate of 90% or more (almost completely withered)) | 1 (Herbicidal rate of 5% or more and less than 20%) | 4 (Herbicidal rate of 70% or more and less than 90%) | 5 (Herbicidal rate of 90% or more (almost completely withered)) | F: southern crabgrass, herbicidal effect (criteria 0-5) (southern crabgrass; AAH 320 g/ha): 5 (Herbicidal rate of 90% or more (almost completely withered)); R: persian speedwell, herbicidal effect (criteria 0-5) (persian speedwell; AAH 320 g/ha): 5 (Herbicidal rate of 90% or more (almost completely withered)); P: chickweed, herbicidal effect (criteria 0-5) (chickweed [9]; AAH 320 g/ha): 5 (Herbicidal rate of 90% or more (almost completely withered)); G: green foxtail, herbicidal effect (criteria 0-5) (green foxtail [10]; AAH 320 g/ha): 5 (Herbicidal rate of 90% or more (almost completely withered)); H: barnyard grass, herbicidal effect (criteria 0-5) (barnyard grass [11]; AAH 320 g/ha): 5 (Herbicidal rate of 90% or more (almost completely withered)); I: wild oat, herbicidal effect (criteria 0-5) (wild oat [12]; AAH 320 g/ha): 5 (Herbicidal rate of 90% or more (almost completely withered)); L: windgrass, herbicidal effect (criteria 0-5) (windgrass; AAH 320 g/ha): 5 (Herbicidal rate of 90% or more (almost completely withered))
